Experimental findings from patent US20230293517A1, “ANTAGONIST COMPOUNDS” (AdoRx Therapeutics Limited, priority 2020, published 2023) are described below.

Test [1] relates to human PBMCs. Briefly: CD3/CD28 stimulated IL-2 release NECA reversal assay in human PBMCs. The format is cell-based. To be noted: PBMC, 1 uM NECA, 24 hours, IL-2 in culture supernatant. The method, then:
Biological Example—CD3/CD28 Stimulated IL-2 Release NECA Reversal Assay in Human PBMCs
Blood is drawn from healthy volunteers using sodium citrate as the anticoagulant (0.3% final concentration). After centrifugation of the blood over Histopaque-1077, PBMCs are collected from the Histopaque/plasma interface and washed twice in PBS (300 g for 10 mins at room temp). Cells are plated at 50,000 cells/well in 150 μl RPMI/10% FCS in 96-well cell culture plates that have been precoated with 1 ug/ml CD3 antibody. 50 μl diluted compound mix is added to the cells, to obtain final concentrations of 1 ug/ml CD28 antibody, 1 uM NECA and 0.003-10 μM adenosine receptor antagonist. Assay plates are incubated for 24 hours at 37° C. in a humidified incubator. Culture supernatant is tested for IL-2 levels using the human IL-2 Tissue Culture Kit (Meso Scale Discovery). Data for dose-response curves is calculated as % inhibition with 100% inhibition defined from no agonist control wells (+CD3/28-NECA)

The subject of test [2] is CD8+T cells in human whole blood. Nature of the test: Measurement of pCREB in CD8+T cells in human whole blood. The conditions noted are these: 3 μM NECA, rolipram. The format is cell-based. The method, then:
Biological Example—Measurement of pCREB in CD8+T Cells in Human Whole Blood
Heparinised human whole blood was pre-incubated at 37° C. with serial dilutions of A2a antagonists for 20 min. and the phosphodiesterase inhibitor rolipram to amplify the pCREB response. The adenosine receptor agonist NECA is then added at a final concentration of 3 μM and following a 60 min incubation the blood is fixed and red blood cells lysed. White blood cells are isolated, permeabilized and stained with directly conjugated fluorescent antibodies to phospho-CREB (Alexa Fluor 488) and CD8 (Alexa Fluor 647) and the level of phospho-CREB in CD8+T cells is measured by FACS using a BD Accuri C6 Flow Cytometer.

Test [3] has as its target human Adenosine A2a receptor (Homo sapiens (Human), UniProt P29274). Briefly: Adenosine receptor TR-FRET binding assay (A2a). To be noted: inhibition of binding of 100 nM CA200645, CHO cell membranes. An outline of the steps: (§1)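 Ki values come from Cheng–Prusoff conversion of IC50s for displacement of fluorescent antagonist CA200645 from terbium-labelled human adenosine receptors in CHO membranes. Tracer was 30 nM at A2b and 100 nM at the other three subtypes; incubation lasted 2 h at room temperature.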
On the technique in general: Time-resolved FRET reads energy transfer from a long-lived donor to a nearby acceptor.

The target in test [4] is human Adenosine A3 receptor (Homo sapiens (Human), UniProt P0DMS8). Briefly: Adenosine receptor TR-FRET binding assay (A3). The conditions noted are these: inhibition of binding of 100 nM CA200645, CHO cell membranes. An outline of the steps:
as §1

Test [5] addresses human Adenosine A2b receptor (Homo sapiens (Human), UniProt P29275). Briefly: Adenosine receptor TR-FRET binding assay (A2b). Summed up:
as §1

The target in test [6] is human Adenosine A1 receptor (Homo sapiens (Human), UniProt P30542). Nature of the test: Adenosine receptor TR-FRET binding assay (A1). To be noted: inhibition of binding of 100 nM CA200645, CHO cell membranes. Summed up:
as §1

Setting [7] is: TR-FRET, inhibition of binding of 30 nM CA200645, CHO cell membranes.

Where two headings read alike, the source gives them in different places.

Chain of human Adenosine A2a receptor (P29274 whole entry): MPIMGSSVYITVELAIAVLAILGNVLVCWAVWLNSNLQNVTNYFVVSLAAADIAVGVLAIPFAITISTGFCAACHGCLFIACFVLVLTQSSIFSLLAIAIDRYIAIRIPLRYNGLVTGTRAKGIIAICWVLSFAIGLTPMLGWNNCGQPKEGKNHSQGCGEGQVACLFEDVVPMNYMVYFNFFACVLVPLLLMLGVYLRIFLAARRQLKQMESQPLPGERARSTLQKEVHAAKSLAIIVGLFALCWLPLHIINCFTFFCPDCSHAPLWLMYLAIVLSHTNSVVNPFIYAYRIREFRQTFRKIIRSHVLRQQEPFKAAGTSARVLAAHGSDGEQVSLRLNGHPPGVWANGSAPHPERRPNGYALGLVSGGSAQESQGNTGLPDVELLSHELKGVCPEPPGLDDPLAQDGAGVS
Chain of human Adenosine A1 receptor (P30542 whole entry): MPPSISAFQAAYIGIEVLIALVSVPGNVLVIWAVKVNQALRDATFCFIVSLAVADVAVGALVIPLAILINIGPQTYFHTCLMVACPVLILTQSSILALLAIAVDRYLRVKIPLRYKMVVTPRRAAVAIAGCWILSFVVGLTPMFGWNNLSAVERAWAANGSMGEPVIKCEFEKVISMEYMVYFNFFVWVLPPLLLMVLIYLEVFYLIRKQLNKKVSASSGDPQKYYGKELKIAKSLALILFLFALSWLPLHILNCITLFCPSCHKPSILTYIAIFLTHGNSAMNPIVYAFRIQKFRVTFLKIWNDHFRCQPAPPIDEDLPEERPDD
Chain of human Adenosine A3 receptor (P0DMS8 whole entry): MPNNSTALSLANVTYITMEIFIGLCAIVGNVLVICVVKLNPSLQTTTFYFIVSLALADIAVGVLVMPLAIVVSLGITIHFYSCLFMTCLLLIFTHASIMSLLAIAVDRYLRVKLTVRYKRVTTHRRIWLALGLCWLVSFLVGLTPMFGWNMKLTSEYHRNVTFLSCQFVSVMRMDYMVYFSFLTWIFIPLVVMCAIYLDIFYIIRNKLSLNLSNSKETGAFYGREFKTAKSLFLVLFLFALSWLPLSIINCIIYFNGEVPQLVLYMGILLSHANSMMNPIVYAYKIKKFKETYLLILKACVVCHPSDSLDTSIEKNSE
Chain of human Adenosine A2b receptor (P29275 whole entry): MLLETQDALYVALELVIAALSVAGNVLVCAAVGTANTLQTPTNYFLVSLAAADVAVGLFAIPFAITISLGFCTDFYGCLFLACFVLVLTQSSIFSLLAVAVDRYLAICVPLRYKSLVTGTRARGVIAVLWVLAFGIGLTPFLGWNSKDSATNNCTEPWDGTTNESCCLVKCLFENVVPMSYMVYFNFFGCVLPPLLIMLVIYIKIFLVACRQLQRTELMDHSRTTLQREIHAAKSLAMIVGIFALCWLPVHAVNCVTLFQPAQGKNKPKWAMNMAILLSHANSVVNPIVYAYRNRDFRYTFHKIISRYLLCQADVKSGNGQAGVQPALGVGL

On to `Cc1cc(-c2sc(NC(=O)N3CCC4(CC3)CNC(=O)N4C)nc2-c2cccc(C#N)c2)cc(C)n1` [Example 6.51, N-[4-(3-Cyanophenyl)-5-(2,6-dimethyl-4-pyridyl)thiazol-2-yl]-1-methyl-2-oxo-1,3,8-triazaspiro[4.5]decane-8-carboxamide], for which the IC50 (as a rule, the concentration that inhibits the measured activity by half) worked out at 6.1 nM in test [1] and 320 nM in test [2].
With `Cc1cc(-c2sc(NC(=O)N3CC4(CCNC4=O)C3)nc2-c2cccc(C#N)c2)cc(C)n1` [Example 6.59, N-[4-(3-Cyanophenyl)-5-(2,6-dimethyl-4-pyridyl)thiazol-2-yl]-5-oxo-2,6-diazaspiro[3.4]octane-2-carboxamide], the values for the IC50 in test [1] and in test [2] were 5.9 nM and 100 nM, respectively. Besides, the Ki (commonly the equilibrium dissociation constant of an inhibitor or competing ligand from its target) in test [3] is 1.47 nM; in test [4], 184 nM; in test [5] (setting [7]), 2.2 nM; in test [6], 128 nM.
Turning to `Cc1cc(-c2sc(NC(=O)N3CCC(C#N)(C(C)(C)O)CC3)nc2-c2cccc(C#N)c2)cc(C)n1` [Example 6.41, 4-Cyano-N-[4-(3-cyanophenyl)-5-(2,6-dimethyl-4-pyridyl)thiazol-2-yl]-4-(1-hydroxy-1-methyl-ethyl)piperidine-1-carboxamide], the IC50 in test [1] was 2.7 nM; in test [2], 120 nM. For the same compound, the Ki in test [3] turned out to be 0.18 nM; in test [4], 235 nM; in test [5] (setting [7]) it was 1.3 nM; in test [6], 111 nM.
In the case of `Cc1cc(-c2sc(NC(=O)N3CC[S+]([O-])CC3)nc2-c2cccc(C#N)c2)c(F)c(C)n1` [Example 10, N-[4-(3-Cyanophenyl)-5-(3-fluoro-2,6-dimethyl-4-pyridyl)thiazol-2-yl]-1-oxo-1,4-thiazinane-4-carboxamide], the values for the IC50 in test [1] and in test [2] were 24.7 nM and 1060 nM, respectively. Also, the Ki in test [3] worked out at 1.19 nM; in test [4], 283 nM; in test [5] (setting [7]), 1.4 nM; in test [6] it was 43 nM.
For `Cc1cc(-c2sc(NC(=O)N3CC(C#N)(CO)C3)nc2-c2cccc(C#N)c2)cc(C)n1` [Example 6.64, 3-Cyano-N-[4-(3-cyanophenyl)-5-(2,6-dimethyl-4-pyridyl)thiazol-2-yl]-3-(hydroxymethyl)azetidine-1-carboxamide], the IC50 in test [1] was determined as 1.1 nM; in test [2], 10 nM. The Ki worked out at 0.14 nM in test [3], 235 nM in test [4], 1.4 nM in test [5] (setting [7]) and 27 nM in test [6].
Consider `Cc1cc(-c2sc(NC(=O)N3CC4(CNC(=O)C4)C3)nc2-c2cccc(C#N)c2)cc(C)n1` [Example 6.55, N-[4-(3-Cyanophenyl)-5-(2,6-dimethyl-4-pyridyl)thiazol-2-yl]-6-oxo-2,7-diazaspiro[3.4]octane-2-carboxamide], for which the IC50 in test [1] is 2.2 nM; in test [2] it was 10 nM.
Consider `Cc1cc(-c2sc(NC(=O)N3CCC4(CC3)COC4)nc2-c2cccc(C#N)c2)cc(C)n1` [Example 6.10, N-[4-(3-Cyanophenyl)-5-(2,6-dimethyl-4-pyridyl)thiazol-2-yl]-2-oxa-7-azaspiro[3.5]nonane-7-carboxamide], for which the IC50 in test [1] was 2.9 nM; in test [2], 40 nM. Besides, the Ki in test [3] is 0.3 nM; in test [4], 316 nM; in test [5] (setting [7]) it was 1.2 nM; in test [6], 14 nM.
On to `Cc1cc(-c2sc(NC(=O)N3CCN[C@@H](C(F)(F)F)C3)nc2-c2cccc(C#N)c2)cc(C)n1` [Example 13.13, (3R)-N-[4-(3-Cyanophenyl)-5-(2,6-dimethyl-4-pyridyl)thiazol-2-yl]-3-(trifluoromethyl)piperazine-1-carboxamide], for which the Ki in test [3] worked out at 0.48 nM; in test [4] it was 871 nM; in test [5] (setting [7]), 8 nM; in test [6], 19 nM. The compound further displayed an IC50 in test [2] of 110 nM.
As for `Cc1cc(-c2sc(NC(=O)N3CC[C@H](S(C)(=O)=O)C3)nc2-c2cccc(C#N)c2)cc(C)n1` [Example 6.1, (3S)-N-[4-(3-Cyanophenyl)-5-(2,6-dimethyl-4-pyridyl)thiazol-2-yl]-3-methylsulfonyl-pyrrolidine-1-carboxamide], the IC50 in test [1] is 3.6 nM; in test [2] it was 150 nM. The Ki was found to be 1.05 nM in test [3], 228 nM in test [4] and 2.1 nM in test [5] (setting [7]).
As to `Cc1cc(-c2sc(NC(=O)N3CC[C@@H](S(C)(=O)=O)C3)nc2-c2cccc(C#N)c2)cc(C)n1` [Example 6.9, (3R)-N-[4-(3-Cyanophenyl)-5-(2,6-dimethyl-4-pyridyl)thiazol-2-yl]-3-methylsulfonyl-pyrrolidine-1-carboxamide], the IC50 in test [1] is 4.3 nM; in test [2] it was 160 nM. In addition, the Ki came to 0.88 nM in test [3], 412 nM in test [4] and 0.7 nM in test [5].
As to `Cc1cc(-c2sc(NC(=O)N3CCOC(C(C)(C)O)C3)nc2-c2cccc(C#N)c2)cc(C)n1` (stereo not shown) [Example 6.47, N-[4-(3-Cyanophenyl)-5-(2,6-dimethyl-4-pyridyl)thiazol-2-yl]-2-(1-hydroxy-1-methyl-ethyl)morpholine-4-carboxamide], the IC50 came out at 1.9 nM in test [1] and 80 nM in test [2]. The Ki came out at 0.37 nM in test [3], 2.5 nM in test [5] and 38 nM in test [6].
In the case of `Cc1cc(-c2sc(NC(=O)N3CCN4C(=O)OCC4C3)nc2-c2cccc(C#N)c2)cc(C)n1` (stereo not shown) [Example 6.13, N-[4-(3-Cyanophenyl)-5-(2,6-dimethyl-4-pyridyl)thiazol-2-yl]-3-oxo-5,6,8,8a-tetrahydro-1H-oxazolo[3,4-a]pyrazine-7-carboxamide], the IC50 came out at 3.7 nM in test [1] and 140 nM in test [2]. Also, the inhibition constant (Ki) is 0.4 nM in test [3], 3.4 nM in test [5] (setting [7]) and 23 nM in test [6].
Consider `Cc1cc(-c2sc(NC(=O)N3CC4(CCOCC4)C3)nc2-c2cccc(C#N)c2)cc(C)n1` [Example 6.54, N-[4-(3-Cyanophenyl)-5-(2,6-dimethyl-4-pyridyl)thiazol-2-yl]-7-oxa-2-azaspiro[3.5]nonane-2-carboxamide], for which the IC50 is 3.3 nM in test [1] and 140 nM in test [2].
Taken in the same sequence, the figures for `Cc1cc(-c2sc(NC(=O)N3CCC4(CCCC(=O)N4)CC3)nc2-c2cccc(C#N)c2)cc(C)n1` [Example 6.58, N-[4-(3-Cyanophenyl)-5-(2,6-dimethyl-4-pyridyl)thiazol-2-yl]-2-oxo-1,9-diazaspiro[5.5]undecane-9-carboxamide] were 8.5 nM and 360 nM.
Taken in the same sequence, the figures for `Cc1cc(-c2sc(NC(=O)N3CC(C)(O)C3)nc2-c2cccc(C#N)c2)c(F)c(C)n1` [Example 6.67, N-[4-(3-Cyanophenyl)-5-(3-fluoro-2,6-dimethyl-4-pyridyl)thiazol-2-yl]-3-hydroxy-3-methyl-azetidine-1-carboxamide] were 10.6 nM and 250 nM.
Taken in the same sequence, the figures for `Cc1cc(-c2sc(NC(=O)N3CC4(CNC(=O)N4)C3)nc2-c2cccc(C#N)c2)cc(C)n1` [Example 6.57, N-[4-(3-Cyanophenyl)-5-(2,6-dimethyl-4-pyridyl)thiazol-2-yl]-6-oxo-2,5,7-triazaspiro[3.4]octane-2-carboxamide] were 2.6 nM and 60 nM.
Turning to `Cc1cc(-c2sc(NC(=O)N3CCC(C)(O)CC3)nc2-c2cccc(C#N)c2)cc(C)n1` [Example 6.96, N-[4-(3-Cyanophenyl)-5-(2,6-dimethyl-4-pyridyl)thiazol-2-yl]-4-hydroxy-4-methyl-piperidine-1-carboxamide], the Ki in test [3] worked out at 0.53 nM; in test [4], 502 nM; in test [5] (setting [7]) it was 1.8 nM; in test [6] it was 10 nM. In addition, the IC50 in test [2] is 30 nM.
For `Cc1cc(-c2sc(NC(=O)N3CCC(C)(C#N)CC3)nc2-c2cccc(C#N)c2)c(F)c(C)n1` [Example 6.66, 4-Cyano-N-[4-(3-cyanophenyl)-5-(3-fluoro-2,6-dimethyl-4-pyridyl)thiazol-2-yl]-4-methyl-piperidine-1-carboxamide], the IC50 in test [1] turned out to be 4.3 nM; in test [2] it was 300 nM.
Taken in the same sequence, the figures for `Cc1cc(-c2sc(NC(=O)N3CC[C@H]3CO)nc2-c2cccc(C#N)c2)cc(C)n1` [Example 6.73, (2S)-N-[4-(3-Cyanophenyl)-5-(2,6-dimethyl-4-pyridyl)thiazol-2-yl]-2-(hydroxymethyl)azetidine-1-carboxamide] were 13.5 nM and 200 nM.
